{"source": "patent US9168243B2", "about": "“Pharmaceutical compositions comprising 8-substituted dibenzylbutyrolactone lignans” (priority 2010, dated 2015)", "key": {"[1]": {"system": "insulin receptor (IR) β-subunit and IGF-I receptor (IGF-IR) β-subunit", "test": "Immunoprecipitation of IRβ and IGF-IRβ after insulin or IGF-I stimulation, Western blot for phospho-tyrosine and PI3K p85α", "type": "cell-based", "conditions": "serum-starved LNCaP; 40-100 μM NTG 2 hours before 10 nM insulin or IGF-I, 10 minutes", "protocol": "The cells were treated with 0-100 μM lignans or solvent control for indicated times. Human recombinant isoleucin-zipper TRAIL (izTRAIL; kindly provided by Professor Henning Walczak) was used at 0-1 μg/ml with an incubation time of 20 hours. Prior to 10 minutes treatment with 10 nM IGF-1 (Millipore) or 10 nM insulin (Sigma) the cells were serum-starved (1% FCS) overnight. EGFR stimulation was performed on serum-starved cells with 20 ng/ml EGF for 5 minutes (a kind gift from Professor Klaus Elenius laboratory).\nThe cells cultured on […] were placed on ice and rinsed with cold PBS. The cells were lysed in 1 ml of cold lysis buffer (50 mM Tris pH 7.4, 150 mM NaCl, 1 mM EDTA, 1.25% CHAPS, 1 mM Na3OV4, 2 mM NaF, 10 mM sodium pyrophosphate and complete protease inhibitor cocktail [Roche Applied Science]) for 10 minutes. […]\nTo further investigate the specificity of this inhibitory effect, LNCaP cells were serum-starved overnight, treated with 0-100 μM NTG for 2 hours, and activated for 10 minutes with 10 nM insulin or IGF-I, after which insulin receptor (IR) β-subunit and IGF-I receptor (IGF-IR) β-subunit were immunoprecipitated (FIG. 5B). The precipitated complexes were analyzed by Western blotting for presence of PI3K p85α (85 kDa), IRβ (95 kDa), IGF-IRβ (95 kDa) and phospho-tyrosine and the expression of PI3K p85α, Akt and phospho-Akt(ser473) was probed from the lysates. […]"}, "[2]": {"system": "LNCaP cells", "test": "Caspase-3 activation by flow cytometry, TRAIL with or without NTG", "type": "cell-based", "conditions": "for percentage of cells with activated caspase-3 (maximum): combination of 40 μM NTG and TRAIL, 20 h", "protocol": "Flow cytometric analysis of apoptosis with HTS platform was performed on cells that were plated on a 96-well plate as triplicate samples. After 24 hours in androgen-deprived conditions, the cells were pretreated with 40 μM lignans or lignan derivatives for 1 hour prior to addition of 10 ng/ml izTRAIL. Twenty hours later the plate was centrifuged with a culture plate rotor (1000 rpm, 3 minutes). For analysis of nuclear fragmentation, propidium iodide (PI) buffer (40 mM Na-citrate, 0.3% Triton X-100, 50 μg/ml PI; Sigma) was added to the wells. After 10 minutes incubation at room temperature, the plate was analyzed with LSRII flow cytometer equipped with HTS platform (PE-A channel). The fraction of sub-G0/G1 events (nuclear fragmentation) was gated as a measure of apoptotic cell death. For detection of mitochondrial depolarization, the cells were detached by trypsinization of the cells and incubated in 20 nM tetramethylrhodamine (TMRM; Invitrogen) in warm culture medium for 10 minutes before analysis. The plate was analyzed with LSRII flow cytometer equipped with HTS platform (FSC, PE-A channel). The cells with decreased TMRM incorporation were considered to have undergone mitochondrial membrane depolarization. Activated caspase-3 in cells was labeled with phycerythrin (PE)-conjugated antibody according to manufacturer's protocol (BD Pharmingen) and analyzed by FacsCalibur flow cytometer (FL-2, FSC).\nAs NTG was identified as the most efficient TRAIL-sensitizing lignan, we analyzed the ability of NTG to affect the efficacy of different TRAIL concentrations in triggering of caspase-3 activation (FIG. 2A). The TRAIL resistant LNCaP cells were cultured in androgen-supplied and androgen-deprived conditions to simulate the effects of androgen-deprivation therapy, and treated for 20 h with TRAIL alone or with the combination of 40 μM NTG and TRAIL. The percentage of cells with activated caspase-3 increased from maximum of 15% to 60% for androgen-deprived, and from 13% to 30% for androgen-supplied cells (Mean±SEM; n≧3) (FIG. 2A)."}}, "data": [{"compound": "COc1cc(CC2COC(=O)C2(O)Cc2ccc(O)c(OC)c2)ccc1O", "note": "(stereo not drawn) [NTG, Nortrachelogenin]", "values": [{"measurement": "amount of receptor-associated PI3K p85", "setting": "[1]", "result": "clearly reduced"}, {"measurement": "receptor tyrosine phosphorylation of IR and IGF-IR", "setting": "[1]", "result": "decreased"}, {"measurement": "sensitizing effect when medium change directly precedes TRAIL receptor activation", "setting": "[2]; 1 hour pretreatment with 40 μM NTG, culture medium replaced before TRAIL, androgen-deprived and androgen-supplied", "result": "completely abolished"}, {"measurement": "effect of increasing the NTG dose on sensitization to TRAIL", "setting": "[2]; NTG 40 μM to 100 μM, 10 ng/ml TRAIL", "result": "did not induce further sensitization"}, {"measurement": "percentage of cells with activated caspase-3 (maximum)", "setting": "[2]; androgen-deprived LNCaP", "result": 60, "unit": "%"}, {"measurement": "percentage of cells with activated caspase-3 (maximum)", "setting": "[2]; androgen-supplied LNCaP", "result": 30, "unit": "%"}]}]}
